In patent US20230079819A1, “COMPOUNDS AND USES THEREOF” (Foghorn Therapeutics Inc., priority 2019, published 2023):

Columns and labels:
BRM = target: T1, BRM (Homo sapiens, UniProt P51531); assay: ATPase catalytic activity of BRM, ADP-Glo in vitro biochemical assay; conditions: ATPase catalytic activity, 30 nM BRM, 400 μM ATP, read-out: BRM IP50 (μM)*
T1 construct: made in house; host or cells: High Five insect cells

BRG-1 = target: T2, BRG-1 (Homo sapiens, UniProt P51532); assay: ATPase catalytic activity of BRG-1, ADP-Glo in vitro biochemical assay; conditions: ATPase catalytic activity, 30 nM BRG-1, 400 μM ATP, read-out: BRG1 IP50 (μM)*
T2 construct: made in house; host or cells: High Five insect cells
T2 sequence (P51532 whole entry): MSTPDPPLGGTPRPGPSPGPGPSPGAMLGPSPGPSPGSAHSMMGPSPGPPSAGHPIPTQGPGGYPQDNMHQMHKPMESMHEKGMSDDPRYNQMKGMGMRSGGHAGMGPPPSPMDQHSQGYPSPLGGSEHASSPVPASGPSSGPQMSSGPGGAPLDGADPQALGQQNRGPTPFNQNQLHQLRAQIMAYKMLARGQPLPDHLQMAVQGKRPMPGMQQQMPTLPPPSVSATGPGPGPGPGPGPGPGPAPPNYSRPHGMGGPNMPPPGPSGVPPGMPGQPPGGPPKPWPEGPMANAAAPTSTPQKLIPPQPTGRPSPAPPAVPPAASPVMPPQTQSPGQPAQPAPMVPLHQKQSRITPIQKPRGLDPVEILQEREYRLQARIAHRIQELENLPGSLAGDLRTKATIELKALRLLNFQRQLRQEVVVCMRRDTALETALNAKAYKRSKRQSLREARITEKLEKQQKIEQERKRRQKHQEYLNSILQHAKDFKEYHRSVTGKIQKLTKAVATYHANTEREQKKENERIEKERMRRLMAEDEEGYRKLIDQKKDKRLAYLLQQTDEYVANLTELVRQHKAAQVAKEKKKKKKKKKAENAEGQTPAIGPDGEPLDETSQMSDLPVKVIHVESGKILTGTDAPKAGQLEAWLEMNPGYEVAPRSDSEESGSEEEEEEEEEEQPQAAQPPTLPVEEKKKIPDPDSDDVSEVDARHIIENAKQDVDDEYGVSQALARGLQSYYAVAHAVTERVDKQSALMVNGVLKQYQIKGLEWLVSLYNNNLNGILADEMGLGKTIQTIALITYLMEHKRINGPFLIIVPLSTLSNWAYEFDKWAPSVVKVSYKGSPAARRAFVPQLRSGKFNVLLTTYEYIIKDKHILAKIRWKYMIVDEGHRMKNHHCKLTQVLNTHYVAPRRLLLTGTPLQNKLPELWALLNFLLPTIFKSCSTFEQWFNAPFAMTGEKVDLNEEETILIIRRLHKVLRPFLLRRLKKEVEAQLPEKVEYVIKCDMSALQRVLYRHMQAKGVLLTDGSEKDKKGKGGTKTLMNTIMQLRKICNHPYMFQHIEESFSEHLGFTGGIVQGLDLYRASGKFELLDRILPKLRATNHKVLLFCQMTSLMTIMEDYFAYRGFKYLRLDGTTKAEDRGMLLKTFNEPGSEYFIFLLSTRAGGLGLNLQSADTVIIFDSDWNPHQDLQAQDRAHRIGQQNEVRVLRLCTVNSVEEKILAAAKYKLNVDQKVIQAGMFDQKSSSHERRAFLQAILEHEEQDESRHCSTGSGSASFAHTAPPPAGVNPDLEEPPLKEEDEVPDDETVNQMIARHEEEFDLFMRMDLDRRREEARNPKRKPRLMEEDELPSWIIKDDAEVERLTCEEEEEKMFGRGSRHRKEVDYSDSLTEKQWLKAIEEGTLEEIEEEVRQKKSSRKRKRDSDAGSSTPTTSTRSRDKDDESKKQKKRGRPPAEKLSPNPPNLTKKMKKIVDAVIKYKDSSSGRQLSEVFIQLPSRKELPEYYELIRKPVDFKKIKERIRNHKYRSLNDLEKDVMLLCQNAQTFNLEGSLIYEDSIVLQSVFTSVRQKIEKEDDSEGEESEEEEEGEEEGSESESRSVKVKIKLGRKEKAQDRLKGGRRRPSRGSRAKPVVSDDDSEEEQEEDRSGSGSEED

T1 sequence (P51531 whole entry): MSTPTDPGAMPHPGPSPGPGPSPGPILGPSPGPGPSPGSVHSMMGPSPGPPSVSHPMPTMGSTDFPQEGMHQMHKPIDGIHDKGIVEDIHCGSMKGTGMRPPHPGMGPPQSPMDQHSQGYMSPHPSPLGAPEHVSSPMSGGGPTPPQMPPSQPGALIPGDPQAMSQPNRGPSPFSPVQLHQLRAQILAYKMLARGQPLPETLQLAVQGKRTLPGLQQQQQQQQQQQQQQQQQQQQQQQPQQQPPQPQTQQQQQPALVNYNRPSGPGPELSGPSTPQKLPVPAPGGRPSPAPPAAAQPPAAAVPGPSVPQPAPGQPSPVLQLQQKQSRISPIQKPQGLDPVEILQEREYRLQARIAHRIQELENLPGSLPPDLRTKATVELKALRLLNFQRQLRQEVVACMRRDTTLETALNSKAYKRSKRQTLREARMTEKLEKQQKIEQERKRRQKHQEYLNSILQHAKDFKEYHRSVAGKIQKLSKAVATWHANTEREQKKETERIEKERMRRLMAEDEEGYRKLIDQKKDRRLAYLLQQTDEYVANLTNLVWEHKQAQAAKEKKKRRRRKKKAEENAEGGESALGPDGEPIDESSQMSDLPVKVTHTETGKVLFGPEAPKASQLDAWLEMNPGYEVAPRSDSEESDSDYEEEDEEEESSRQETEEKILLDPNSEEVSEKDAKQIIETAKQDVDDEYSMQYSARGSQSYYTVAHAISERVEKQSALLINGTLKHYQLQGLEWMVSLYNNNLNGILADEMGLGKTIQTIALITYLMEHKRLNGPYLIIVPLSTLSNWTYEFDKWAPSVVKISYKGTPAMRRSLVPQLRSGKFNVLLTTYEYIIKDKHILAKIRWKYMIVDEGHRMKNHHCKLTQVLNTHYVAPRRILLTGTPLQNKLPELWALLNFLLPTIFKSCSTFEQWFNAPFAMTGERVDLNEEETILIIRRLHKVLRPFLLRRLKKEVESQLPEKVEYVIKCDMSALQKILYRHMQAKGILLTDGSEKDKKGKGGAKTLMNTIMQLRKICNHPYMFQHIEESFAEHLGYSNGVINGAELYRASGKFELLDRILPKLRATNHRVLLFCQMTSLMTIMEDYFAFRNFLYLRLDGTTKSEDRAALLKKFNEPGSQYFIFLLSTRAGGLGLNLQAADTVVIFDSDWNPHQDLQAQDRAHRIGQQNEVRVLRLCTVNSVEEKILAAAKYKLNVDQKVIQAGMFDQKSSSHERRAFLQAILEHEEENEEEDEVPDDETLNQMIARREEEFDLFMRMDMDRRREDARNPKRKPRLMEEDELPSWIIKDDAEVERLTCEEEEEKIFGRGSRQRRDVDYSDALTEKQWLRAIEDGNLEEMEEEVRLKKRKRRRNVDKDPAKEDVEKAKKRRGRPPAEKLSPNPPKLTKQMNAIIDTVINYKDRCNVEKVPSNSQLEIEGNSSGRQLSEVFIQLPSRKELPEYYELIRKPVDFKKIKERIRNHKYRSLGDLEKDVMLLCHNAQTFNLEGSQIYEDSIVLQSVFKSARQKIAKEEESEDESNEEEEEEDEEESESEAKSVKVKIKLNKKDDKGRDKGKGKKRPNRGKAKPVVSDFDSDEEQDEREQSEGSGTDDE

Row | IC50 (BRM) | IC50 (BRG-1) | SMILES
1 | > 0.01 µM | > 0.01 µM | Cn1cc(-c2cccc(-c3csc(NC(=O)CNC(=O)c4ccn(C(C)(C)C)c4)n3)c2)cn1 [Compound 83, 1-(tert-butyl)-N-(2-((4-(3-(1-methyl-1H-pyrazol-4-yl)phenyl)thiazol-2-yl)amino)-2-oxoethyl)-1H-pyrrole-3-carboxamide]
2 | < 0.01 µM | > 0.01 µM | CC(C)(C)n1ccc(C(=O)NCC(=O)Nc2nc(-c3cccc(-c4ccncn4)c3)cs2)c1 [Compound 84, 1-(tert-butyl)-N-(2-oxo-2-((4-(3-(pyrimidin-4-yl)phenyl)thiazol-2-yl)amino)ethyl)-1H-pyrrole-3-carboxamide]
3 | < 0.01 µM | < 0.01 µM | C[C@@H]1CN(c2cccc(-c3csc(NC(=O)CNC(=O)c4ccn(S(C)(=O)=O)c4)n3)c2)C[C@@H](C)O1 [Compound 85, N-(2-((4-(3-((2R, 6R)-2,6-dimethylmorpholino)phenyl)thiazol-2-yl)amino)-2-oxoethyl)-1-(methylsulfonyl)-1H-pyrrole-3-carboxamide]
4 | < 0.01 µM | < 0.01 µM | C[C@H]1CN(c2cccc(-c3csc(NC(=O)CNC(=O)c4ccn(S(C)(=O)=O)c4)n3)c2)C[C@H](C)O1 [Compound 86, N-(2-((4-(3-((2S, 6S)-2,6-dimethylmorpholino)phenyl)thiazol-2-yl)amino)-2-oxoethyl)-1-(methylsulfonyl)-1H-pyrrole-3-carboxamide]
5 | < 0.01 µM | < 0.01 µM | C[C@H]1CN(c2cccc(-c3csc(NC(=O)CNC(=O)c4ccn(S(C)(=O)=O)c4)n3)c2)CCO1 [Compound 87, (S)—N-(2-((4-(3-(2-methylmorpholino)phenyl)thiazol-2-yl)amino)-2-oxoethyl)-1-(methylsulfonyl)-1H-pyrrole-3-carboxamide]
6 | < 0.01 µM | < 0.01 µM | C[C@@H]1CN(c2cccc(-c3csc(NC(=O)CNC(=O)c4ccn(S(C)(=O)=O)c4)n3)c2)CCO1 [Compound 88, (R)—N-(2-((4-(3-(2-methylmorpholino)phenyl)thiazol-2-yl)amino)-2-oxoethyl)-1-(methylsulfonyl)-1H-pyrrole-3-carboxamide]
7 | > 0.01 µM | > 0.01 µM | CC1(C)CN(c2cccc(-c3csc(NC(=O)CNC(=O)c4ccn(S(C)(=O)=O)c4)n3)c2)CCO1 [Compound 89, N-(2-((4-(3-(2,2-dimethylmorpholino)phenyl)thiazol-2-yl)amino)-2-oxoethyl)-1-(methylsulfonyl)-1H-pyrrole-3-carboxamide]
8 | < 0.01 µM | < 0.01 µM | C[C@@H]1CN(c2cccc(-c3csc(NC(=O)CNC(=O)c4ccn(C(C)(C)C)c4)n3)c2)C[C@H](C)O1 [Compound 90, 1-(tert-butyl)-N-(2-((4-(3-(cis-2,6-dimethylmorpholino)phenyl)thiazol-2-yl)amino)-2-oxoethyl)-1H-pyrrole-3-carboxamide]
9 | > 0.01 µM | > 0.1 µM | COCC1CCN(c2cccc(-c3csc(NC(=O)CNC(=O)c4ccn(S(C)(=O)=O)c4)n3)c2)CC1 [Compound 91, N-(2-((4-(3-(4-(methoxymethyl)piperidin-1-yl)phenyl)thiazol-2-yl)amino)-2-oxoethyl)-1-(methylsulfonyl)-1H-pyrrole-3-carboxamide]
10 | > 0.01 µM | > 0.01 µM | COC[C@H]1CCCN(c2cccc(-c3csc(NC(=O)CNC(=O)c4ccn(S(C)(=O)=O)c4)n3)c2)C1 [Compound 92, (S)—N-(2-((4-(3-(3-(methoxymethyl)piperidin-1-yl)phenyl)thiazol-2-yl)amino)-2-oxoethyl)-1-(methylsulfonyl)-1H-pyrrole-3-carboxamide]
11 | > 0.01 µM | > 0.01 µM | Cc1cn(-c2cccc(-c3csc(NC(=O)CNC(=O)c4ccn(S(C)(=O)=O)c4)n3)c2)cn1 [Compound 93, N-(2-((4-(3-(4-methyl-1H-imidazol-1-yl)phenyl)thiazol-2-yl)amino)-2-oxoethyl)-1-(methylsulfonyl)-1H-pyrrole-3-carboxamide]
12 | < 0.01 µM | < 0.01 µM | CS(=O)(=O)n1ccc(C(=O)NCC(=O)Nc2nc(-c3cccc(N4CCC(O)CC4)c3)cs2)c1 [Compound 94, N-(2-((4-(3-(4-hydroxypiperidin-1-yl)phenyl)thiazol-2-yl)amino)-2-oxoethyl)-1-(methylsulfonyl)-1H-pyrrole-3-carboxamide]
13 | > 0.01 µM | > 0.01 µM | COC1CCN(c2cccc(-c3csc(NC(=O)CNC(=O)c4ccn(S(C)(=O)=O)c4)n3)c2)CC1 [Compound 95, N-[2-[[4-[3-(4-methoxy-1-piperidyl)phenyl]thiazol-2-yl]amino]-2-oxo-ethyl]-1-methylsulfonyl-pyrrole-3-carboxamide]
14 | > 0.01 µM | > 0.1 µM | COC1(C)CCN(c2cccc(-c3csc(NC(=O)CNC(=O)c4ccn(S(C)(=O)=O)c4)n3)c2)CC1 [Compound 96, N-(2-((4-(3-(4-methoxy-4-methylpiperidin-1-yl)phenyl)thiazol-2-yl)amino)-2-oxoethyl)-1-(methylsulfonyl)-1H-pyrrole-3-carboxamide]
15 | > 0.1 µM | > 0.1 µM | CO[C@@H]1CCCN(c2cccc(-c3csc(NC(=O)CNC(=O)c4ccn(C(C)(C)C)c4)n3)c2)C1 [Compound 97, (R)-1-(tert-butyl)-N-(2-((4-(3-(3-methoxypiperidin-1-yl)phenyl)thiazol-2-yl)amino)-2-oxoethyl)-1H-pyrrole-3-carboxamide]
16 | > 0.01 µM | > 0.01 µM | CO[C@H]1CCCN(c2cccc(-c3csc(NC(=O)CNC(=O)c4ccn(C(C)(C)C)c4)n3)c2)C1 [Compound 98, (S)-1-(tert-butyl)-N-(2-((4-(3-(3-methoxypiperidin-1-yl)phenyl)thiazol-2-yl)amino)-2-oxoethyl)-1H-pyrrole-3-carboxamide]
17 | < 0.01 µM | > 0.01 µM | CS(=O)(=O)n1ccc(C(=O)NCC(=O)Nc2nc(-c3cccc(N4CCOCC4)c3)cs2)c1 [Compound 99, 1-methylsulfonyl-N-[2-[[4-(3-morpholinophenyl)thiazol-2-yl]amino]-2-oxo-ethyl]pyrrole-3-carboxamide]
18 | > 0.01 µM | > 0.01 µM | CC(C)(C)n1ccc(C(=O)NCC(=O)Nc2nc(-c3cccc(N4CCOCC4)c3)cs2)c1 [Compound 100, 1-tert-butyl-N-[2-[[4-(3-morpholinophenyl)thiazol-2-yl]amino]-2-oxo-ethyl]pyrrole-3-carboxamide]
19 | < 0.01 µM | < 0.01 µM | CS(=O)(=O)n1ccc(C(=O)NCC(=O)Nc2nc(-c3cccc(N4CC5(COC5)C4)c3)cs2)c1 [Compound 101, N-(2-((4-(3-(2-oxa-6-azaspiro[3.3]heptan-6-yl)phenyl)thiazol-2-yl)amino)-2-oxoethyl)-1-(methylsulfonyl)-1H-pyrrole-3-carboxamide]
20 | > 0.1 µM | > 0.1 µM | CC(C)(Oc1ccncc1)c1cccc(-c2csc(NC(=O)CNC(=O)c3ccn(S(C)(=O)=O)c3)n2)c1 [Compound 102, 1-(methylsulfonyl)-N-(2-oxo-2-((4-(3-(2-(pyridin-4-yloxy)propan-2-yl)phenyl)thiazol-2-yl)amino)ethyl)-1H-pyrrole-3-carboxamide]
21 | > 0.1 µM | > 0.1 µM | CC(Oc1ccccc1)c1cccc(-c2csc(NC(=O)CNC(=O)c3ccn(S(C)(=O)=O)c3)n2)c1 (stereo not shown) [Compound 103, 1-(methylsulfonyl)-N-(2-oxo-2-((4-(3-(1-phenoxyethyl)phenyl)thiazol-2-yl)amino)ethyl)-1H-pyrrole-3-carboxamide]
22 | > 0.01 µM | > 0.01 µM | CS(=O)(=O)n1ccc(C(=O)NCC(=O)Nc2nc(-c3cccc(COc4ccccc4)c3)cs2)c1 [Compound 104, 1-(methylsulfonyl)-N-(2-oxo-2-((4-(3-(phenoxymethyl)phenyl)thiazol-2-yl)amino)ethyl)-1H-pyrrole-3-carboxamide]
23 | > 0.01 µM | < 0.01 µM | CS(=O)(=O)n1ccc(C(=O)NCC(=O)Nc2nc(-c3cccc(CO[C@H]4CC[C@H](O)CC4)c3)cs2)c1 [Compound 105, N-(2-((4-(3-((((1R,4R)-4-hydroxycyclohexyl)oxy)methyl)phenyl)thiazol-2-yl)amino)-2-oxoethyl)-1-(methylsulfonyl)-1H-pyrrole-3-carboxamide]
24 | < 0.01 µM | < 0.01 µM | CS(=O)(=O)n1ccc(C(=O)NCC(=O)Nc2nc(-c3cccc(OCc4ccncc4)c3)cs2)c1 [Compound 106, 1-(methylsulfonyl)-N-(2-oxo-2-((4-(3-(pyridin-4-ylmethoxy)phenyl)thiazol-2-yl)amino)ethyl)-1H-pyrrole-3-carboxamide]
25 | > 0.01 µM | > 0.01 µM | CS(=O)(=O)n1ccc(C(=O)NCC(=O)Nc2nc(-c3cccc(COc4ccccn4)c3)cs2)c1 [Compound 107, 1-(methylsulfonyl)-N-(2-oxo-2-((4-(3-((pyridin-2-yloxy)methyl)phenyl)thiazol-2-yl)amino)ethyl)-1H-pyrrole-3-carboxamide]
26 | < 0.01 µM | > 0.01 µM | CS(=O)(=O)n1ccc(C(=O)NCC(=O)Nc2nc(-c3cccc(COc4ccncc4)c3)cs2)c1 [Compound 108, 1-(methylsulfonyl)-N-(2-oxo-2-((4-(3-((pyridin-4-yloxy)methyl)phenyl)thiazol-2-yl)amino)ethyl)-1H-pyrrole-3-carboxamide]
27 | > 0.01 µM | > 0.01 µM | CN1Cc2ccc(-c3csc(NC(=O)CNC(=O)c4ccn(S(C)(=O)=O)c4)n3)cc2CC1=O [Compound 109, N-(2-((4-(2-methyl-3-oxo-1,2,3,4-tetrahydroisoquinolin-6-yl)thiazol-2-yl)amino)-2-oxoethyl)-1-(methylsulfonyl)-1H-pyrrole-3-carboxamide]
28 | > 0.01 µM | > 0.01 µM | CS(=O)(=O)n1ccc(C(=O)NCC(=O)Nc2nc(-c3cccc(OCC4COC4)c3)cs2)c1 [Compound 110, 1-(methylsulfonyl)-N-(2-((4-(3-(oxetan-3-ylmethoxy)phenyl)thiazol-2-yl)amino)-2-oxoethyl)-1H-pyrrole-3-carboxamide]
29 | > 0.1 µM | > 0.1 µM | CS(=O)(=O)n1ccc(C(=O)NCC(=O)Nc2nc(C3CCCN(c4ccncc4)C3)cs2)c1 (stereo not shown) [Compound 111]
